43 molecules from patent publication US11548849B2, “Alcohol derivatives as KV7 potassium channel openers” (H. Lundbeck A/S, priority 2019, dated 2023) can be followed below.

The target in the experiment is T1, hKv7.2/hKv7.3 (Homo sapiens, UniProt O43525+O43526).
T1 construct: P2A self-cleaving peptide (between Kv7.3 and Kv7.2; the remnant would stay on the upstream protein) (C); expressed in transfected cells
Nature of the experiment: Thallium influx assay for potassium channel activation. The format is cell-based. Particulars: HEK-hKv7.2/hKv7.3 cells; FLIPR Potassium Assay kit; AUC readout normalized to a reference compound. How it is done: A synthesized cDNA fragment encoding human Kv7.3 and human Kv7.2 separated by a P2A sequence was inserted into the pcDNA5/FRT/TO vector using the BamHI and XhoI restriction sites. The construct was then transfected into HEK Flp-In 293 cells using Lipofectamine2000. The transfected cells were grown for 48 hours in DMEM containing 10% (v/v) FBS and 1% PenStrep and subsequently maintained under selection in DMEM containing 10% (v/v) FBS, 1% PenStrep and 200 ug/mL Hygromycin B at 37° C. in a humidified atmosphere of 5% CO2.
The thallium influx assay for potassium channel activation was performed analogously to a published procedure (C. D. Weaver, et al., J Biomol Screen 2004, 9, 671-677) using the FLIPR Potassium Assay kit (Molecular Devices). HEK-hKv7.2/hKv7.3 cells were plated onto 96-well, black-walled, clear-bottomed culture plates (Corning, Acton, Mass., USA) at a density of 80,000 cells/well (100 μl/well) if the cells were assayed the following day, or 40,000 cells/well (100 μl/well) if the cells were assayed two days after seeding.
On the assay day, the medium was removed after which 50 uL/well of test compound diluted to 2× final concentration in HBSS containing 20 mM HEPES, and 50 uL/well of 2× dye load buffer were added. The cells were then incubated for 60 min at room temperature in the dark. Chloride-free stimulation buffer containing Tl^+ and K^+ at 5× final concentration (5× concentration: 5 mM in both cases) and test compound at 1× final concentration, were prepared during the incubation. The cells were then assayed in a FDSS7000EX Functional Drug Screening System (Hamamatsu). Following 60 sec of baseline fluorescence signal reading at 0.1 Hz, and 10 sec at 1 Hz, 25 uL/well of stimulation buffer were added and the fluorescence continuously measured for 50 sec at 1 Hz followed, by 4 min at 0.1 Hz. Compound effect was quantified using AUC as readout and normalized to a reference compound, which was included on each plate.
Broadly, the EC50 is the midpoint of the concentration-response curve. Molecule `CC(C)(C)C(O)CC(=O)N[C@@H](COC(F)F)c1cccc(OC(F)F)c1` (single isomer, unassigned) [Example 1a] yielded an EC50 of 7600 nM.
In the case of `CC(C)(C)C(O)CC(=O)N[C@@H](COC(F)F)c1cccc(OC(F)F)c1` (single isomer, unassigned) [Example 1b] it was 420 nM; in that of `CCOC[C@H](NC(=O)CC(O)C(C)(C)C)c1cccc(OC(F)(F)F)c1` (single isomer, unassigned) [Example 2a], 10000 nM; in that of `CCOC[C@H](NC(=O)CC(O)C(C)(C)C)c1cccc(OC(F)(F)F)c1` (single isomer, unassigned) [Example 2b], 1800 nM.
`O=C(CC(O)C1(C(F)(F)F)CC1)N[C@@H](COC(F)F)c1cccc(OC(F)F)c1` (single isomer, unassigned) [Example 3a] displayed an EC50 of 2800 nM.
Regarding `O=C(CC(O)C1(C(F)(F)F)CC1)N[C@@H](COC(F)F)c1cccc(OC(F)F)c1` (single isomer, unassigned) [Example 3b], the response was half-maximal at 2400 nM (EC50).
In turn, `O=C(CC(O)C1(C(F)(F)F)CC1)N[C@@H](COC(F)F)c1cccc(OC(F)(F)F)c1` (single isomer, unassigned) [Example 4a] yielded an EC50 of 1700 nM.
In the case of `O=C(CC(O)C1(C(F)(F)F)CC1)N[C@@H](COC(F)F)c1cccc(OC(F)(F)F)c1` (single isomer, unassigned) [Example 4b], the midpoint of the response, the EC50, lay at 2900 nM.
`O=C(CC(O)C1CC(F)(F)C1)N[C@@H](COC(F)F)c1cccc(OC(F)F)c1` (single isomer, unassigned) [Example 5a] yielded an EC50 of 1200 nM.
Under `O=C(CC(O)C1CC(F)(F)C1)N[C@@H](COC(F)F)c1cccc(OC(F)F)c1` (single isomer, unassigned) [Example 5b] stands 4500 nM; under `O=C(CC(O)C1CC(F)(F)C1)N[C@@H](COC(F)F)c1cccc(OC(F)(F)F)c1` (single isomer, unassigned) [Example 6a], 2500 nM.
For the molecule `O=C(CC(O)C1CC(F)(F)C1)N[C@@H](COC(F)F)c1cccc(OC(F)(F)F)c1` (single isomer, unassigned) [Example 6b], the EC50 came to 1100 nM.
As for `CCC[C@H](NC(=O)CC(O)C1CC(F)(F)C1)c1cccc(OC(F)F)c1` (single isomer, unassigned) [Example 7a], a half-maximal response (EC50) required 4000 nM.
Consider `CCC[C@H](NC(=O)CC(O)C1CC(F)(F)C1)c1cccc(OC(F)F)c1` (single isomer, unassigned) [Example 7b], for which the EC50 is 25000 nM.
Under `CCC1(C(O)CC(=O)N[C@@H](COC(F)F)c2cccc(OC(F)F)c2)CC1` (single isomer, unassigned) [Example 8a] stands 4800 nM.
Turning to `CCC1(C(O)CC(=O)N[C@@H](COC(F)F)c2cccc(OC(F)F)c2)CC1` (single isomer, unassigned) [Example 8b], the EC50 came out at 1200 nM.
For the molecule `CC(O)(CC(=O)N[C@@H](COC(F)F)c1cccc(OC(F)F)c1)C1(F)CC1` (single isomer, unassigned) [Example 9a], the EC50 was 1500 nM.
In the case of `CC(O)(CC(=O)N[C@@H](COC(F)F)c1cccc(OC(F)F)c1)C1(F)CC1` (single isomer, unassigned) [Example 9b] it was 9200 nM; in that of `CC(O)(CC(=O)N[C@@H](COC(F)F)c1cccc(OC(F)(F)F)c1)C1(F)CC1` (single isomer, unassigned) [Example 10a], 660 nM; in that of `CC(O)(CC(=O)N[C@@H](COC(F)F)c1cccc(OC(F)(F)F)c1)C1(F)CC1` (single isomer, unassigned) [Example 10b], 4100 nM.
`CC(O)(CC(=O)N[C@@H](COC(F)F)c1cccc(OC(F)(F)F)c1)C1CC1` (single isomer, unassigned) [Example 11a] gave an EC50 of 5400 nM.
In turn, `CC(O)(CC(=O)N[C@@H](COC(F)F)c1cccc(OC(F)(F)F)c1)C1CC1` (single isomer, unassigned) [Example 11b] yielded an EC50 of 1700 nM.
Under `CC(O)(CC(=O)N[C@@H](COC(F)F)c1cccc(OC(F)F)c1)CC(F)(F)F` (single isomer, unassigned) [Example 12a] stands 1300 nM; under `CC(O)(CC(=O)N[C@@H](COC(F)F)c1cccc(OC(F)F)c1)CC(F)(F)F` (single isomer, unassigned) [Example 12b], 6200 nM; under `CC(C)CC(C)(O)CC(=O)N[C@@H](COC(F)F)c1cccc(OC(F)F)c1` (single isomer, unassigned) [Example 13a], 960 nM.
Turning to `CC(C)CC(C)(O)CC(=O)N[C@@H](COC(F)F)c1cccc(OC(F)F)c1` (single isomer, unassigned) [Example 13b], the EC50 came out at 360 nM.
With `CC(C)C(C)(O)CC(=O)N[C@@H](COC(F)F)c1cccc(OC(F)F)c1` (single isomer, unassigned) [Example 14a], the EC50 was 5200 nM.
In the case of `CC(C)C(C)(O)CC(=O)N[C@@H](COC(F)F)c1cccc(OC(F)F)c1` (single isomer, unassigned) [Example 14b] it was 1300 nM; in that of `CC1(C)CC(C(O)CC(=O)N[C@@H](COC(F)F)c2cccc(OC(F)F)c2)C1` (single isomer, unassigned) [Example 15a], 3700 nM; in that of `CC1(C)CC(C(O)CC(=O)N[C@@H](COC(F)F)c2cccc(OC(F)F)c2)C1` (single isomer, unassigned) [Example 15b], 650 nM.
On to `O=C(CC(O)C1CCCC1)N[C@@H](COC(F)F)c1cccc(OC(F)F)c1` (single isomer, unassigned) [Example 16a], for which the EC50 is 2600 nM.
Under `O=C(CC(O)C1CCCC1)N[C@@H](COC(F)F)c1cccc(OC(F)F)c1` (single isomer, unassigned) [Example 16b] stands 430 nM; under `COC[C@H](NC(=O)C[C@](C)(O)C1(F)CC1)c1cccc(OC(F)(F)F)c1` (single isomer, unassigned) [Example 36a], 2700 nM.
In the case of `COC[C@H](NC(=O)C[C@@](C)(O)C1(F)CC1)c1cccc(OC(F)(F)F)c1` (single isomer, unassigned) [Example 36b], a half-maximal response (EC50) required 16000 nM.
Regarding `CC(C)(C)[C@@H](O)CC(=O)N[C@@H](COC1CC1)c1cccc(OC(F)F)c1` [Example 17, (S)—N—((R)-2-cyclopropoxy-1-(3-(difluoromethoxy)phenyl)ethyl)-3-hydroxy-4,4-dimethylpentanamide], it took 1500 nM to reach a half-maximal effect (EC50).
The molecule `CC(C)(C)[C@@H](O)CC(=O)N[C@@H](COC(F)(F)F)c1cccc(OC(F)F)c1` [Example 18, (S)—N—((R)-1-(3-(difluoromethoxy)phenyl)-2-(trifluoromethoxy)ethyl)-3-hydroxy-4,4-dimethylpentanamide] had an EC50 of 950 nM.
On to `CC(C)(C)[C@@H](O)CC(=O)N[C@@H](COC(F)(F)F)c1cccc(OC(F)(F)F)c1` [Example 19, (S)—N—((R)-1-(3-(trifluoromethoxy)phenyl)-2-(trifluoromethoxy)ethyl)-3-hydroxy-4,4-dimethylpentanamide], for which the EC50 came out at 940 nM.
The molecule `CCC[C@H](NC(=O)C[C@H](O)C(C)(C)C)c1cccc(OC(F)F)c1` [Example 20, (S)—N—((S)-1-(3-(difluoromethoxy)phenyl)butyl)-3-hydroxy-4,4-dimethylpentanamide] gave an EC50 of 1500 nM.
Molecule `CC(C)(C)[C@@H](O)CC(=O)N[C@@H](CCC(F)F)c1cccc(OC(F)F)c1` [Example 21, (S)—N—((S)-1-(3-(difluoromethoxy)phenyl)-4,4-difluorobutyl)-3-hydroxy-4,4-dimethylpentanamide] had a 50% effective concentration (EC50) of 1000 nM.
Under `CC(C)(C)[C@@H](O)CC(=O)N[C@@H](CC(F)F)c1cccc(OC(F)F)c1` [Example 22, (S)—N—((S)-1-(3-(difluoromethoxy)phenyl)-3,3-difluoropropyl)-3-hydroxy-4,4-dimethylpentanamide] stands 4500 nM; under `C[C@H](NC(=O)C[C@H](O)C(C)(C)C)c1cccc(OC(F)F)c1` [Example 23, (S)—N—((S)-1-(3-(difluoromethoxy)phenyl)ethyl)-3-hydroxy-4,4-dimethylpentanamide], 1500 nM.
In the case of `CC(C)(C)[C@@H](O)CC(=O)N[C@@H](CC#N)c1cccc(OC(F)(F)F)c1` [Example 24, (S)—N—((S)-2-cyano-1-(3-(trifluoromethoxy)phenyl)ethyl)-3-hydroxy-4,4-dimethylpentanamide] it was 2400 nM; in that of `CC(C)(C)[C@@H](O)CC(=O)N[C@@H](CCC#N)c1cccc(OC(F)(F)F)c1` [Example 25, (S)—N—((S)-3-cyano-1-(3-(trifluoromethoxy)phenyl)propyl)-3-hydroxy-4,4-dimethylpentanamide], 1900 nM.
